We go through 3 molecules from patent US20210405030A1, “MEANS AND METHODS FOR DETERMINING METABOLIC ADAPTATION” (EnFin GmbH, priority 2018, published 2021).

Where two headings read alike, the source gives them in different places. Square brackets hold non-standard residues; d marks the D form. Ends that are not written are not given here. pY = N[C@@H](Cc1ccc(OP(=O)(O)O)cc1)C(=O)O

For assay [1], the system named is Healthy blood donor mononuclear lymphocytes. The note with it: for Blood test result: reference interval 2.0±0.3.
Source text: The cellular model used herein discriminates between an immuno activating environment and an immune suppressive environment. An immuno activating environment comprises supplementation of growth factors/serum and allows growth and survival of blood derived immune cells. An immuno suppressive environment comprises deprivation of growth factors/serum (starvation) and diminishes growth and survival of blood derived immune cells. […] In both conditions a switch to anaerobic glycolysis was induced pharmacologically and proliferation and survival of immune cells was compared to unmodified immune cells.
Healthy blood donor mononuclear lymphocytes were cultured under normoxia (21%) and anoxia (0%). Enzyme activities of PK low affinity (PK la), PK high affinity (PK ha) and Lactate dehydrogenase (LDH) were measured in the homogenates.
For the next assay, the system named is PBMCs. The experiment in a line: Proliferation and survival of PBMCs in immuno activating (10% FCS) or immuno suppressive (starvation) environment (FIG. 1). The format is cell-based, human. The settings on record: for proliferation and survival: GM-CSF 20 ng/ml, HMGB1 variants 200 nM. As to the method: FIG. 1: Proliferation of PBMCs under the indicated conditions; P-M2 tide: induction of glycolysis by incubation with P-M2 tide; A) control (no activator compound); B) hGM-CSF added; C) to G) HMGB1 or variant thereof added.
To evaluate to what extent and by which agent anerg immune cells could be stimulated we used recombinant human GM-CSF (20 ng/ml, FIG. 1 B) or recombinant/synthetic variants of the immune system stimulating human HMGB1 cytokine (200 nM, FIG. 1 C-G).

In the case of GGAVDDD[pY]AQFANGG [P-M2 tide], the values for the Blood test result in assay [1] (10% FCS (immuno activating environment) + P-M2 tide) and in assay [1] (starvation (immune suppressive environment) + P-M2 tide) were 0.30 and 1.37, respectively. Also, the “shift from OXPHOS to anaerobic glycolysis” value in assay [1] (ex vivo human immune cells, blocking the PK tetramer) is “enables immune cells to shift from OXPHOS to anaerobic glycolysis”.
For the molecule “GM-CSF: human granulocyte monocyte colony stimulating factor, recombinant”, the proliferation and survival result is “fully rescued from cell death and showed increased proliferation (and survival)” in the assay with PBMCs (immuno-suppressed (starved) cells showing a switch to anaerobic glycolysis); “partly rescued” in the assay on PBMCs (immuno-suppressed (starved) cells with no switch to anaerobic glycolysis).

B1: Wildtype human recombinant HMGB1: high mobility group box 1 protein, immuno-stimulating cytokine and DAMP (SEQ ID NO:3) (protein, listed as Homo sapiens)
chain: MGKGDPKKPRGKMSSYAFFVQTCREEHKKKHPDASVNFSEFSKKCSERWKTMSAKEKGKFEDMAKADKARYEREMKTYIPPKGETKKKFKDPNAPKRPPSAFFLFCSEYRPKIKGEHPGLSIGDVAKKLGEMWNNTAADDKQPYEKKAAKLKEKYEKDIAAYRAKGKPDAAKKGVVKAEKSKKKKEEEEDEEDEEDEEEEEDEEDEDEEEDDDDE
Turning to B1, in the assay on PBMCs (200 nM, condition not further specified), the “proliferation and survival of immune cells” value was “failed to increase proliferation and survival”.
